# Earlier results as cited in patent US20050260263A1, “Sustained release formulation for sparingly soluble main drugs” (Panion & BF Biotech Inc., priority 2004, published 2005).
# Like-named read-outs stand apart in the source and are kept apart here.
SMILES,Solubility (water),Solubility (gastric fluid),Solubility (region of the lower intestine (pH 6 to 8)),Solubility (upper region of the small intestine (pH 5.0))
CC[C@H]1OC(=O)[C@H](C)[C@@H](O[C@H]2C[C@@](C)(OC)[C@@H](O)[C@H](C)O2)[C@H](C)[C@@H](O[C@@H]2O[C@H](C)C[C@H](N(C)C)[C@H]2O)[C@](C)(O)C[C@@H](C)C(=O)[C@H](C)[C@@H](O)[C@]1(C)O [Erythromycin],only slightly soluble,–,–,–
CC[C@H]1OC(=O)[C@H](C)[C@@H](O[C@H]2C[C@@](C)(OC)[C@@H](O)[C@H](C)O2)[C@H](C)[C@@H](O[C@@H]2O[C@H](C)C[C@H](N(C)C)[C@H]2O)[C@](C)(OC)C[C@@H](C)C(=O)[C@H](C)[C@@H](O)[C@]1(C)O [clarithromycin],–,very soluble,poorly soluble,fairly soluble
